Test results: patent US10821097B2, “DBH inhibitors for treating or preventing memory loss” (Brandeis University, priority 2015, dated 2020)

Legend:
[1] = system: DBH; conditions: in vivo; cited from earlier work
[2] = molecular target: T1, DBH (Rattus norvegicus, UniProt Q05754); conditions: cited from earlier work; for blood-brain barrier crossing, indicated by effect of injections on brain dopamine levels: Antabuse 100 mg/kg, Nepicastat 50 mg/kg, intraperitoneal
T1 construct: In rat studies, Antabuse (100 mg/kg) and Nepicastat (50 mg/kg) were injected intraperitoneally; host or cells: rat, in vivo (endogenous enzyme)
T1 sequence (Q05754 1-620): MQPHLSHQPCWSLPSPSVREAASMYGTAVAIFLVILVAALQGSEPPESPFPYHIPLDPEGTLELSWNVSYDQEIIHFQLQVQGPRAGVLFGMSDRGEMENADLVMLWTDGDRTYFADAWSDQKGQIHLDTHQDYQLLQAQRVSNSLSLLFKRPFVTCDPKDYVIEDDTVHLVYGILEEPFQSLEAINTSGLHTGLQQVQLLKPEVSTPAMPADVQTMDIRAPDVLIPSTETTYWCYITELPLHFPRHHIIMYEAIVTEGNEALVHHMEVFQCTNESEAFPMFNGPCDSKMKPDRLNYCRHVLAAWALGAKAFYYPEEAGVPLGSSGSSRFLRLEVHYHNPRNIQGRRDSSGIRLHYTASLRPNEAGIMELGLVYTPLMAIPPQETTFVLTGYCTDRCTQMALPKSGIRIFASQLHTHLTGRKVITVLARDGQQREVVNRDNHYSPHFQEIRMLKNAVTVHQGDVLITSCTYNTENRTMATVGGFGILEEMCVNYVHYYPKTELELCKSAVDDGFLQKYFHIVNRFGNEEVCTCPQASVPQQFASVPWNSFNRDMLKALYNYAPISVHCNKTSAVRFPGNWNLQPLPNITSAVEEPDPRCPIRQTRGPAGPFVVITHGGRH

[3] = up to 120 mg/day; cited from earlier work
[4] = system: LC; experiment: event arena memory test in KORD mice with the LC inhibited by SALB; format: in vivo; conditions: SALB subcutaneously 10 minutes before encoding trial
[5] = system: D1R; experiment: light-stimulated dopamine release from LC axons, fEPSP in CA1 of hippocampal slices; format: cell-based; conditions: 10 uM, n=4, Schaffer collateral stimulation
Description: The chemogenetic approach allows the acute memory deficits produced by graded decrease in LC function to be measured. This model then provides a rigorous and rapid screening method to determine whether the resulting memory deficits can be reversed by agents that enhance dopamine release (with or without noradrenaline stimulants). Results in FIG. 2 document the role of LC axons in producing functionally important dopamine release. The experiments were done in CA1 using synaptic stimulation of Schaffer collaterals to measure synaptic strength. FIG. 2, left: brief light stimulation of the hippocampus (arrow) produces a long-lasting enhancement of the fEPSP (normalized increase in charge) (n=5). This light-stimulated release of dopamine replicates the effect of direct application of dopamine (Huang and Kandel, 1995). […] Stimulation protocol: three sets of ˜18 Hz stimulation (5 msec light pulses)=a total of 60 pulses/set; 1 minute between sets. The LC was injected in vivo with AAV virus that produced channel-rhodopsin in cells containing tyrosine hydroxylase, an enzyme in the dopamine and noradrenaline synthesis pathway (see FIG. 1). The selective expression in noradrenergic cells in the LC is due to Cre expression driven by a tyrosine hydroxylase promoter. […] The response of CA1 pyramidal cells was measured by the field EPSP (fEPSP). […]

[6] = IP, suspension in sterile saline

For CCN(CC)C(=S)SSC(=S)N(CC)CC [Disulfiram, 1,1′,1″,1′″-[disulfanediylbis(carbonothioylnitrilo)]tetraethane], the “effect on dopamine concentration and/or dopamine release” value [1] is given as “increase the concentration of dopamine and/or increase dopamine release”, the “blood-brain barrier crossing, indicated by effect of injections on brain dopamine levels” value [2] is given as “cross the blood-brain barrier” and the “highest effective dose that didn't affect operant responses” value [2, 6] is given as 100 mg/kg. The lowest effective concentration [2, 6] was 10 mg/kg.

For NCc1c[nH]c(=S)n1[C@H]1CCc2c(F)cc(F)cc2C1 [Nepicastat, 5-(aminomethyl)-1-[(2S)-5,7-difluoro-1,2,3,4-tetrahydronaphthalen-2-yl]-1,3-dihydro-2H-imidazole-2-thione], the “effect on dopamine concentration and/or dopamine release” value [1] is given as “increase the concentration of dopamine and/or increase dopamine release”, the “blood-brain barrier crossing, indicated by effect of injections on brain dopamine levels” value [2] is given as “cross the blood-brain barrier” and the “dose reported to match the 100 mg/kg dose of Antabuse on DBH” value ([2]; IP) is given as 50 mg/kg. The tolerability [3] was “well tolerated”.

In the case of COC(=O)[C@@H]1C[C@H](O)C(=O)[C@H]2[C@@]1(C)CC[C@H]1C(=O)O[C@H](c3ccoc3)C[C@]21C [SALB, salvinorin B], the 24 hr memory [4] is reported as “strongly reduce”.

With CN1CCc2cc(Cl)c(O)cc2[C@H]2c3ccccc3CC[C@@H]21 [SCH39166] the “enhancement of the fEPSP by light stimulation of LC axons in the presence of the antagonist” value [5] was “no enhancement”.
